Literature values as cited in patent US11992546B2, “Process of coloring keratinous material comprising the use of an organosilicon compound, an effect pigment, and a sealing reagent vi” (Henkel AG & Co. KGaA, priority 2019, dated 2024).
Read-outs that look alike come from different tables or passages of the source.

For O=S(=O)([O-])c1ccc(N=Nc2c(O)ccc3ccccc23)cc1.[Na+] [Acid Orange 7, sodium salt of 4-[(2-hydroxy-1-naphthyl)azo]benzene sulphonate], the solubility in water (25° C.) is given as “more than 7 g/L”.

In the case of Nc1cc(S(=O)(=O)[O-])cc2cc(S(=O)(=O)[O-])c(N=Nc3ccccc3)c(O)c12.[Na+].[Na+] [Acid Red 33, disodium salt of 5-amino-4-hydroxy-3-(phenylazo)-naphthalene-2,7-disulphonate], the solubility in water (25° C.) is given as 2500 µg/mL.

In the case of O=C([O-])c1c(Cl)c(Cl)c(Cl)c(Cl)c1-c1c2c(Br)cc(=O)c(Br)c-2oc2c(Br)c(O)cc(Br)c12.O=C([O-])c1c(Cl)c(Cl)c(Cl)c(Cl)c1-c1c2c(Br)cc(=O)c(Br)c-2oc2c(Br)c(O)cc(Br)c12.[Na+].[Na+] [Acid Red 92, disodium salt of 3,4,5,6-tetrachloro-2-(1,4,5,8-tetrabromo-6-hydroxy-3-oxoxanthen-9-yl)benzoic acid], the solubility in water (25° C.) is given as “greater than 10 g/L”.

In the case of O=C([O-])C1=NN(c2ccc(S(=O)(=O)[O-])cc2)C(=O)C1N=Nc1ccc(S(=O)(=O)[O-])cc1.[Na+].[Na+].[Na+] (stereo not shown) [Acid Yellow 23, trisodium salt of 4,5-dihydro-5-oxo-1-(4-sulfophenyl)-4-((4-sulfophenyl)azo)-1H-pyrazole-3-carboxylic acid], the “solubility in water” value (at 25° C.) is listed as “highly soluble”.
